This passage reports GI50 and TGI results from PubChem BioAssay (NCI).

What all share (experiment): NCI tumour cell line growth inhibition, 48 h
Experiment [1] concerns 786-0 renal.
Experiment [2] deals with BT-549 breast.
Experiment [3] relates to CCRF-CEM leukemia.
Experiment [4] deals with HT29 colon.
Experiment [5] relates to LOX IMVI melanoma.
Experiment [6] concerns MDA-MB-435.
For experiment [7], the system named is NCI-H226 lung.
For experiment [8], the system named is OVCAR-4 ovarian.
Experiment [9] concerns SK-MEL-28 melanoma.
The test system of experiment [10] is SNB-19 CNS.

Each structure is given as a SMILES string.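 The compound was tested at five concentrations on cells cultured in 96-well plates, with a 48-hour exposure period. GI50 = concentration required for 50% inhibition of growth. TGI marks complete inhibition of growth.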

With `CC(C)(C)c1nnc2n(c1=O)N=CC(c1ccc(Br)cc1)S2` (stereo not given), the GI50 in experiment [1] was 32.3 µM; in [2], 24.3 µM; in experiment [3], 31.3 µM; in experiment [4], 43.8 µM; in experiment [5], 22.5 µM; in experiment [6], 27.9 µM. Moreover, the GI50 in [7] is 21.4 µM; in experiment [8], 33.9 µM; in experiment [9], 34.2 µM; in experiment [10] it was 51.3 µM. Further, the TGI in experiment [1] is more than 100 µM; in experiment [2], 74.7 µM; in experiment [3] it was more than 100 µM; in experiment [4], more than 100 µM; in experiment [5], 46.8 µM; in [6] it was 78.7 µM. Besides, the TGI in [7] was 51 µM; in experiment [8] it was more than 100 µM; in experiment [9], more than 100 µM; in experiment [10], more than 100 µM.
On to `Clc1ccc(-c2cn(-c3ccccc3)c(-c3ccccc3)n2)c(Cl)c1`, for which the GI50 in experiment [1] was 1.14 µM; in [2], 3.42 µM; in experiment [3], 2.51 µM; in experiment [4], 1.79 µM; in experiment [5], more than 14 µM; in experiment [6], 1.69 µM. Besides, the GI50 in [7] was more than 26 µM; in [8], 0.884 µM; in experiment [9], 4.86 µM; in experiment [10], 6.98 µM. Moreover, the TGI in [1] was 2.56 µM; in [2], more than 50 µM; in experiment [3], more than 50 µM; in experiment [4] it was more than 50 µM; in experiment [5] it was more than 50 µM; in experiment [6], 10.1 µM. The TGI is more than 50 µM in experiment [7], 1.81 µM in experiment [8], more than 41.2 µM in [9] and more than 42.6 µM in experiment [10].
Take `CCc1nc(N)nc(N)c1-c1ccc(Cl)c(N=NN(C)C)c1`: the TGI in [1] was more than 95.7 µM; in experiment [2], more than 94.8 µM; in experiment [3], more than 73.2 µM; in [4], more than 91.4 µM; in [5], more than 100 µM; in experiment [6], more than 92.1 µM. Further, the TGI was more than 100 µM in [7], more than 46.4 µM in [8], more than 75.5 µM in [9] and more than 100 µM in experiment [10].
In the case of `Cc1ccccc1NC(=O)c1sc2nc3c(cc2c1N)C(=O)CCC3`, the GI50 in [1] is 9.02 µM; in experiment [2], 6.58 µM; in experiment [3], 2.55 µM; in [4] it was 1.59 µM; in experiment [5], 6.71 µM; in experiment [6], 0.331 µM. The GI50 in [7] was 37.6 µM; in experiment [8], 6.21 µM; in experiment [9], 1.83 µM; in [10], 3.1 µM. For the same compound, the TGI in [1] was more than 100 µM; in [2] it was more than 100 µM; in experiment [3], more than 100 µM; in experiment [4] it was 23.7 µM; in experiment [5], more than 100 µM; in experiment [6], 1.98 µM. Besides, the TGI in experiment [7], in experiment [8], in [9] and in [10] was more than 100 µM each time.
For `CCCCc1nc2cc(/C=C/C(=O)NO)ccc2n1CCN(CC)CC`, the GI50 is 0.46 µM in experiment [1]; 1.98 µM in [2]; 0.317 µM in experiment [3]; 0.198 µM in experiment [4]; 0.291 µM in experiment [5]; 0.24 µM in [6]. For the same compound, the GI50 is 0.608 µM in [7], 0.345 µM in experiment [8], 0.254 µM in experiment [9] and 0.593 µM in experiment [10]. Also, the TGI is 11.5 µM in experiment [1]; 38.2 µM in experiment [2]; more than 100 µM in experiment [3]; 0.762 µM in experiment [4]; 1.28 µM in experiment [5]; 0.855 µM in experiment [6]. For the same compound, the TGI was 3.45 µM in experiment [7], more than 54.2 µM in experiment [8], 1.58 µM in experiment [9] and 12.2 µM in experiment [10].
In the case of `CC(C)(CCC(C)(C)c1ccccc1)c1ccccc1`, the TGI is 29.5 µM in experiment [1]; 37.2 µM in [2]; 39.9 µM in experiment [3]; 27.8 µM in [4]; 32 µM in [5]; 49.9 µM in experiment [6]. For the same compound, the TGI was 37.6 µM in experiment [7], 39.7 µM in experiment [8], 42.7 µM in experiment [9] and 33.7 µM in experiment [10].
For `C=CCNc1cccc2c1C(=O)c1ccccc1C2(O)CC=C` (stereo not given), the GI50 was 19.8 µM in experiment [1]; 19.3 µM in experiment [2]; 22.6 µM in experiment [3]; 16.8 µM in experiment [4]; 18.6 µM in [5]; 24.6 µM in [6]. For the same compound, the GI50 was 20.2 µM in experiment [7], 26.2 µM in [8], 27 µM in experiment [9] and 18.5 µM in experiment [10]. For the same compound, the TGI in [1] is 36.9 µM; in [2], 42.7 µM; in experiment [3], 52 µM; in [4] it was 36.7 µM; in [5], 35.9 µM; in experiment [6], 59 µM. Moreover, the TGI in experiment [7] is 49.2 µM; in [8], more than 100 µM; in experiment [9], 93.3 µM; in experiment [10], 44.7 µM.
As for `NCC(=O)CCC(=O)O`, the GI50 in experiment [1] was more than 100 µM; in [2], more than 100 µM; in [3], more than 87.2 µM; in experiment [4], more than 100 µM; in [5], more than 100 µM; in experiment [6] it was more than 100 µM. The GI50 in [7], in [8], in [9] and in experiment [10] was more than 100 µM each time. Besides, the TGI in experiment [1], in [2], in experiment [3], in [4], in [5] and in [6] was more than 100 µM in each case. Besides, the TGI in experiment [7], in [8], in experiment [9] and in experiment [10] was more than 100 µM in each case.
